What was measured:
Assay type in all cases: in vivo, human
[1] = test system: sweetness of a reference water solution containing 4% sucrose (sucrose base); assay: Sensory panel of 25 trained panelists, sweet taste modifying effect in 4% sucrose, with nose-clip; details: for enhancement of the sweetness of the sucrose base (in words): 5 ppm; for Significant level Student test (NC) / sweetness, With nose-clip (NC): 5 ppm in 4% sucrose; for Significant level Student test (NC): sweetness, with nose-clip; for sweetness, With nose-clip (NC): scale of −5 (strong masking) to 5 (strong enhancing), 0 = sucrose base
Source text: (§1) The taste of a sample of a composition according to several aspects presented herein, with regard to sweetness and/or sweetness enhancing properties, may be assessed in vivo by using a panel of trained sensory evaluators experienced in the sweet taste estimation procedure, e.g. in the sensory assay described e.g. in Examples 1 and 2, using a test base comprising a 4% sucrose solution, or similar composition.
(§2) In sensory studies, panelists are asked to take a sample of the liquid to be assessed (test substance, e.g. the test base comprising a composition according to several aspects presented herein) into the mouth and after some time allowed for taste perception, to spit the sample out completely. Subsequently, the panelists are asked to rinse their mouth well with water or black tea to reduce any potential carry over effects. The tasting of a sample can be repeated if required.
Sensory Evaluations: A sensory panel consisted of 25 trained panelists. The panelists were asked to evaluate the sweet taste modifying effect of the isolated individual polymethoxyflavones in a reference water solution containing 4% sucrose. The panelists evaluated samples containing TMS, HMQ, NOB, HMF, TAN and SIN (all at 5 ppm), and a mixture comprising a mixture of polymethoxyflavones (PMF mixture at 10 ppm), for taste properties (sweet) on a scale of −5 to 5 (−5 denoted strong masking effect and 5 denoted strong enhancing effect, 0 being the intensity of a reference water solution containing 4% sucrose—referred to herein as the sucrose base).

[2] = test system: sweetness of a reference water solution containing 4% sucrose (sucrose base); assay: Additional sensory evaluation, 8 trained panelists, dose series in 4% sucrose
Source text: as §1, §2
Additional Sensory Evaluations: A sensory panel consisted of 8 trained panelists. The panelists were asked to evaluate the sweet taste modifying effect of 0.001, 0.1, 1, 2, and 20 ppm of either TMS, HMQ, or NOB in a reference water solution containing 4% sucrose, on a scale of −5 to 5 (−5 denoted strong masking effect and 5 denoted strong enhancing effect, 0 being the intensity of a reference water solution containing 4% sucrose—referred to herein as the sucrose base).

[3] = test system: sweetness of reduce sugar fruit tea beverage; assay: Additional sensory evaluation, 8 trained panelists, fruit tea beverage; design: significance of sweetness enhancement: key to the marks not given beside the values
Source text: as §1, §2
Additional Sensory Evaluations: A sensory panel consisted of 8 trained panelists. The panelists were asked to evaluate the sweet taste modifying effect of 0.001, 2 and 20 ppm of PMF mixture and 0.2 ppm of TMS, 0.1 ppm of HMQ, and 0.3 ppm of the mixture of TMS and HMQ at ratio of 2 to 1 in a reference low sugar fruit tea beverage solution as well as standard sugar fruit tea beverage solution.

[4] = test system: sweetness of a reference water solution containing 4% sucrose; assay: Additional sensory evaluation, 8 trained panelists, TMS, HMQ and TMS:HMQ mixtures in different ratio; details: for significance of sweetness enhancement: Low sugar beverage (4% sucrose)
Source text: as §1, §2
A sensory panel consisted of 8 trained panelists. The panelists were asked to evaluate the sweet taste modifying effect of 0.5, 1, 2 ppm of either TMS or HMQ as well as 1, 1.5, 2 ppm of TMS and HMQ mixture in different ratio in a reference water solution containing 4% sucrose.

[5] = at 0.1 and 0.001 ppm in 4% sucrose
[6] = at doses less than or equal to 2 ppm in 4% sucrose

COc1ccc(-c2cc(=O)c3c(OC)c(OC)c(OC)c(OC)c3o2)cc1OC [NOB, 5,6,7,8,3′,4′-hexamethoxyflavone, reference compound]
enhancement of the sweetness of the sucrose base (in words) [1]: significantly enhance the sweetness of the sucrose base | Significant level Student test (NC) [1]: ++ | sweetness, With nose-clip (NC) [1]: 0.37 | significance of sweetness enhancement ([2]; 0.001 ppm in 4% sucrose): ++ | sweetness enhancing properties (in words) ([2]; 0.001 to 20 ppm in 4% sucrose, in contrast to TMS and HMQ): less significant | significance of sweetness enhancement ([2]; 1 ppm in 4% sucrose): ++ | significance of sweetness enhancement ([2]; 20 ppm in 4% sucrose): ++

COc1ccc(-c2cc(=O)c3c(OC)c(OC)c(OC)c(OC)c3o2)cc1 [TAN, 5,6,7,8,4′-pentamethoxyflavone]
enhancement of the sweetness of the sucrose base (in words) [1]: negative effect of sweetness | Significant level Student test (NC) [1]: − | sweetness, With nose-clip (NC) [1]: −0.30

COc1ccc(-c2oc3c(OC)c(OC)c(OC)c(OC)c3c(=O)c2OC)cc1OC [HMF, 3,5,6,7,8,3′,4′-heptamethoxyflavone]
enhancement of the sweetness of the sucrose base (in words) [1]: Neither HMF, nor SIN had any observable enhancement of sweetness | sweetness, With nose-clip (NC) [1]: 0.21

COc1ccc(-c2oc3cc(OC)c(OC)c(OC)c3c(=O)c2OC)cc1OC [HMQ, 3,5,6,7,3′,4′-hexamethoxyflavone]
enhancement of the sweetness of the sucrose base (in words) [1]: significantly enhance the sweetness of the sucrose base | Significant level Student test (NC) [1]: ++ | sweetness, With nose-clip (NC) [1]: 0.57 | sweetness enhancement effect (in words) ([3]; 0.1 ppm in reduce sugar fruit tea beverage): did not show the sweetness enhancement effect | significance of sweetness enhancement ([2]; 0.001 ppm in 4% sucrose): +++ | significance of sweetness enhancement ([2]; 0.1 ppm in 4% sucrose): ++ | significance of sweetness enhancement ([2]; 2 ppm in 4% sucrose): ++ | sweetness enhancement effect (in words) [2, 5]: significant sweetness enhancement effect | sweetness enhancement effect (in words) [2, 6]: better sweetness enhancement effect | significance of sweetness enhancement ([4]; 0.5 ppm): ++ | sweetness enhancement effect (in words) ([4]; 1 ppm): did not show any observable sweetness enhancement effect | significance of sweetness enhancement ([4]; 2 ppm): ++

COc1ccc(-c2cc(=O)c3c(OC)c(OC)c(OC)cc3o2)cc1 [TMS, 5,6,7,4′-tetramethoxyflavone]
enhancement of the sweetness of the sucrose base (in words) [1]: significantly enhance the sweetness of the sucrose base | Significant level Student test (NC) [1]: ++ | sweetness, With nose-clip (NC) [1]: 0.55 | significance of sweetness enhancement ([3]; +0.2 ppm in reduce sugar fruit tea beverage): ++ | significance of sweetness enhancement ([2]; 0.001 ppm in 4% sucrose): ++ | significance of sweetness enhancement ([2]; 0.1 ppm in 4% sucrose): ++ | significance of sweetness enhancement ([2]; 1 ppm in 4% sucrose): ++ | significance of sweetness enhancement ([2]; 2 ppm in 4% sucrose): + | sweetness enhancement effect (in words) [2, 5]: significant sweetness enhancement effect | sweetness enhancement effect (in words) [2, 6]: better sweetness enhancement effect | significance of sweetness enhancement ([4]; 1 ppm): ++ | significance of sweetness enhancement ([4]; 2 ppm): +

COc1ccc(-c2cc(=O)c3c(OC)c(OC)c(OC)cc3o2)cc1OC [SIN, 5,6,7,3′,4′-pentamethoxyflavone]
enhancement of the sweetness of the sucrose base (in words) [1]: Neither HMF, nor SIN had any observable enhancement of sweetness | sweetness, With nose-clip (NC) [1]: 0.17

From patent US20210161188A1, “POLYMETHOXYFLAVONES AS SWEETNESS ENHANCERS” (Firmenich SA, priority 2018, published 2021)
